Assay results from ChEMBL document CHEMBL5352396, “Synthesis and biological evaluation of novel FiVe1 derivatives as potent and selective agents for the treatment of mesenchymal cancers” (Eur J Med Chem, 2022).
Blank lines part the entries; values can stand above or below the molecule they belong to. Active and inactive are the calls of the source. No cut-off for these calls is given here.

How the values were obtained:
[1] = Drug metabolism in mouse hepatocytes assessed as dealkylation and oxygenation by measuring M2 metabolite formation; assay type: ADME, cell-based, Hepatocyte
Vimentin (Homo sapiens) [2] = target: Vimentin (Homo sapiens) (UniProt P08670); assay: Induction of Vimentin phosphorylation in human GCT cells at 100 nM incubated for 24 hrs by Western blot analysis; assay type: cell-based
HT-1080 = assay: cells; conditions: Homo sapiens, HT-1080, 72 h
[3] = AUC (0 to infinity) in mouse at 25 mg/kg, po by LC-MS/MS analysis; assay type: ADME, organism-based; parameters: dose 25 mg/kg, route po; conditions: in vivo
GCT = assay: cells; conditions: Homo sapiens, 72 h
Vimentin (Homo sapiens) [4] = target: Vimentin (Homo sapiens) (UniProt P08670); assay: Induction of Vimentin phosphorylation in human RD cells at 100 nM incubated for 24 hrs by Western blot analysis; assay type: cell-based
[5] = Drug metabolism in mouse hepatocytes assessed as dealkylation by measuring M1 metabolite formation; assay type: ADME, cell-based, Hepatocyte
Vimentin (Homo sapiens) [6] = target: Vimentin (Homo sapiens) (UniProt P08670); assay: Induction of Vimentin phosphorylation in human GCT cells at 1 uM incubated for 24 hrs by Western blot analysis; assay type: cell-based; conditions: filed as activator
Vimentin (Homo sapiens) [7] = target: Vimentin (Homo sapiens) (UniProt P08670); assay: Induction of Vimentin phosphorylation in human HT-1080 cells at 1 uM incubated for 24 hrs by Western blot analysis; assay type: cell-based; conditions: filed as activator
[8] = Tmax in mouse at 25 mg/kg, po by LC-MS/MS analysis; assay type: ADME, organism-based; conditions: in vivo
[9] = Metabolic stability in CD-1 mouse liver microsomes assessed as intrinsic clearance at 100 uM measured upto 60 mins in presence of NADPH by LC-MS/MS analysis; assay type: ADME, Microsome; conditions: mouse, microsomes, 1 h, 100 µM
MCF7 = assay: cells; conditions: Homo sapiens, MCF7, 72 h
[10] = Drug metabolism in mouse hepatocytes assessed as oxygenation by measuring M5 metabolite formation; assay type: ADME, cell-based, Hepatocyte
[11] = Kinetic solubility of the compound in DPBS buffer at pH 7.4 incubated for 16 hrs under shaking condition by HPLC analysis; assay type: physicochemical; conditions: read-out: Kinetic_solubility
[12] = Metabolic stability in CD-1 mouse liver microsomes assessed as half life at 100 uM measured upto 60 mins in presence of NADPH by LC-MS/MS analysis; assay type: ADME, Microsome; conditions: mouse, microsomes, 1 h, 100 µM
[13] = Drug metabolism in mouse hepatocytes assessed as dealkylation by measuring M3 metabolite formation; assay type: ADME, cell-based, Hepatocyte
[14] = Cmax in mouse at 25 mg/kg, po by LC-MS/MS analysis; assay type: ADME, organism-based; parameters: dose 25 mg/kg, route po; conditions: in vivo
[15] = Metabolic stability in CD-1 mouse liver microsomes assessed as parent compound remaining at 100 uM measured after 60 mins in presence of NADPH by LC-MS/MS analysis; assay type: ADME, Microsome; conditions: read-out: Stability
[16] = Drug metabolism in mouse hepatocytes assessed as oxygenation by measuring M6 metabolite formation; assay type: ADME, cell-based, Hepatocyte
[17] = AUC (0 to last) in mouse at 25 mg/kg, po by LC-MS/MS analysis; assay type: ADME, organism-based; parameters: dose 25 mg/kg, route po; conditions: in vivo
[18] = Half life in mouse at 25 mg/kg, po by LC-MS/MS analysis; assay type: ADME, organism-based; conditions: in vivo
Vimentin (Homo sapiens) [19] = target: Vimentin (Homo sapiens) (UniProt P08670); assay: Induction of Vimentin phosphorylation in human HT-1080 cells at 100 nM incubated for 24 hrs by Western blot analysis; assay type: cell-based
[20] = Drug metabolism in mouse hepatocytes assessed as oxygenation by measuring M7 metabolite formation; assay type: ADME, cell-based, Hepatocyte
Vimentin (Homo sapiens) [21] = target: Vimentin (Homo sapiens) (UniProt P08670); assay: Induction of Vimentin phosphorylation in human RD cells at 1 uM incubated for 24 hrs by Western blot analysis; assay type: cell-based; conditions: filed as activator
[22] = Drug metabolism in mouse hepatocytes assessed as dealkylation by measuring M4 metabolite formation; assay type: ADME, cell-based, Hepatocyte
RD = assay: cells; conditions: Homo sapiens, 72 h
[23] = Oral bioavailability in mouse at 10 mg/kg by LC-MS/MS analysis; assay type: ADME, organism-based; conditions: in vivo
[24] = Cmax in mouse at 10 mg/kg, po by LC-MS/MS analysis; assay type: ADME, organism-based; parameters: dose 10 mg/kg, route po; conditions: in vivo
[25] = Tmax in mouse at 10 mg/kg, po by LC-MS/MS analysis; assay type: ADME, organism-based; conditions: in vivo
[26] = AUC (0 to last) in mouse at 10 mg/kg, po by LC-MS/MS analysis; assay type: ADME, organism-based; parameters: dose 10 mg/kg, route po; conditions: in vivo
[27] = Cmax in mouse at 1 mg/kg, ip by LC-MS/MS analysis; assay type: ADME, organism-based; parameters: dose 1 mg/kg, route ip; conditions: in vivo
[28] = Tlast in mouse at 1 mg/kg, ip by LC-MS/MS analysis; assay type: ADME, organism-based; conditions: in vivo
[29] = Half life in mouse at 1 mg/kg, ip by LC-MS/MS analysis; assay type: ADME, organism-based; conditions: in vivo
[30] = AUC (0 to last) in mouse at 1 mg/kg, ip by LC-MS/MS analysis; assay type: ADME, organism-based; parameters: dose 1 mg/kg, route ip; conditions: in vivo
[31] = Tmax in mouse at 1 mg/kg, ip by LC-MS/MS analysis; assay type: ADME, organism-based; conditions: in vivo
[32] = AUC (0 to infinity) in mouse at 1 mg/kg, ip by LC-MS/MS analysis; assay type: ADME, organism-based; parameters: dose 1 mg/kg, route ip; conditions: in vivo
[33] = Tlast in mouse at 10 mg/kg, po by LC-MS/MS analysis; assay type: ADME, organism-based; conditions: in vivo
[34] = Half life in mouse at 10 mg/kg, po by LC-MS/MS analysis; assay type: ADME, organism-based; conditions: in vivo
[35] = AUC (0 to infinity) in mouse at 10 mg/kg, po by LC-MS/MS analysis; assay type: ADME, organism-based; parameters: dose 10 mg/kg, route po; conditions: in vivo

Sequence of Vimentin (Homo sapiens) (P08670 whole entry): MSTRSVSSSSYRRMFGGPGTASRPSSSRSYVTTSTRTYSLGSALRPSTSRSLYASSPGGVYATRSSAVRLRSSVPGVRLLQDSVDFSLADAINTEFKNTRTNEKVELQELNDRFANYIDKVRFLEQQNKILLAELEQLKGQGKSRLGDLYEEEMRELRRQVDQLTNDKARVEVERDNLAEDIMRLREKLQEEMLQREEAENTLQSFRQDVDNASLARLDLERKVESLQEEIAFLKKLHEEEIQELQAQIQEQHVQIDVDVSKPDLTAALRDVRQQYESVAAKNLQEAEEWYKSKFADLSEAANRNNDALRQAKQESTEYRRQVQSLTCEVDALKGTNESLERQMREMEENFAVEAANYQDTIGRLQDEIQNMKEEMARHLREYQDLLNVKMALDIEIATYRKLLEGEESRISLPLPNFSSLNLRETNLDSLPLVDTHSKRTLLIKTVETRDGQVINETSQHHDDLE

Drug metabolism [1]: Metabolite_Detected
Activity (Vimentin (Homo sapiens) [2]): inactive
IC50 (HT-1080): 1560 nM
AUC(0-inf) [3]: 339 ng·h/mL
IC50 (GCT): 1690 nM
Activity (Vimentin (Homo sapiens) [4]): inactive
Drug metabolism [5]: Metabolite_Detected
Activity (Vimentin (Homo sapiens) [6]): Active
Activity (Vimentin (Homo sapiens) [7]): Active
Tmax [8]: 30 min
microsomal intrinsic clearance [9]: 116.1 µL/min/mg
IC50 (MCF7): > 20 µM
Drug metabolism [10]: Metabolite_Detected
solubility kinetic at 16 h [11]: < 1 µM
t1/2 [12]: 11.9 min
Drug metabolism [13]: Metabolite_Detected
Cmax [14]: 110 ng/mL
remaining at 1 h, 100 µM [15]: 3.2%
Drug metabolism [16]: Metabolite_Detected
AUC(0-t) [17]: 310 ng·h/mL
half-life [18]: 274 min
Activity (Vimentin (Homo sapiens) [19]): inactive
Drug metabolism [20]: Metabolite_Detected
Activity (Vimentin (Homo sapiens) [21]): Active
Drug metabolism [22]: Metabolite_Detected
IC50 (RD): 3100 nM
SMILES: Clc1cccc(N2CCN(c3cnnc4c(Cl)cccc34)CC2)c1

F [23]: 25%
Cmax [24]: 155 ng/mL
Tmax [25]: 40.2 min
Activity (Vimentin (Homo sapiens) [2]; filed as activator): Active
IC50 (HT-1080): 44 nM
AUC(0-t) [26]: 371 ng·h/mL
IC50 (GCT): 49 nM
Cmax [27]: 197 ng/mL
Activity (Vimentin (Homo sapiens) [4]; filed as activator): Active
microsomal intrinsic clearance [9]: 805.3 µL/min/mg
IC50 (MCF7): 11.2 µM
t1/2 [12]: 1.7 min
Tlast [28]: 18 h
half-life [29]: 35.4 min
remaining at 1 h, 100 µM [15]: 0%
AUC(0-t) [30]: 208 ng·h/mL
Tmax [31]: 15 min
AUC(0-inf) [32]: 211 ng·h/mL
Tlast [33]: 8 h
half-life [34]: 281 min
Activity (Vimentin (Homo sapiens) [19]; filed as activator): Active
AUC(0-inf) [35]: 534 ng·h/mL
IC50 (RD): 61 nM
SMILES: COc1cc(Cl)cc(N2CCN(c3cnnc4c(Cl)cccc34)CC2)c1
